{"source": "patent US20080234368A9", "about": "“Therapeutic compositions and methods of use” (Trustees of Dartmouth College, priority 1998, published 2008)", "key": {"[1]": {"tested_on": "AsPc-1 pancreatic carcinoma cells", "assay": "Inhibition of cell proliferation (3H-thymidine incorporation)", "assay_type": "cell-based, human", "settings": "AsPc-1 (Smad4/DPC4 mutation); 3 or 4 days, 3H-thymidine 2 h", "experimental": "(§1) All cells were obtained from ATCC, except as noted. They were grown under standard conditions in either DMEM, DMEM/F 12, or RPMI 1640 media plus 5-10% FBS. CDDO, over the dose range 10^−6 to 10^−10 M, was added to cultures at the time of seeding. Three or 4 days later, cells were treated with ^3H-thymidine for 2 h (12 h in the case of leukemia cells), and then incorporation was measured. “ER” means estrogen receptor.\n(§2) ^aThese cells all have […] mutations (Schutte et al. 1996)."}, "[2]": {"tested_on": "CAPAN-1 pancreatic carcinoma cells", "assay": "Inhibition of cell proliferation (3H-thymidine incorporation)", "assay_type": "cell-based, human", "settings": "CAPAN-1 (Smad4/DPC4 mutation); 3 or 4 days, 3H-thymidine 2 h", "experimental": "as §1, §2"}, "[3]": {"tested_on": "MDA-MB-468 ER negative breast carcinoma cells", "assay": "Inhibition of cell proliferation (3H-thymidine incorporation)", "assay_type": "cell-based, human", "settings": "MDA-MB-468 (Smad4/DPC4 mutation); 3 or 4 days, 3H-thymidine 2 h", "experimental": "as §1, §2"}, "[4]": {"tested_on": "SW626 ovarian carcinoma cells", "assay": "Inhibition of cell proliferation (3H-thymidine incorporation)", "assay_type": "cell-based, human", "settings": "SW626 (Smad4/DPC4 mutation); 3 or 4 days, 3H-thymidine 2 h", "experimental": "as §1, §2"}, "[5]": {"tested_on": "NRP-152 non-malignant prostate epithelium cells", "assay": "Suppression of thymidine incorporation, dose-response (FIG. 13)", "assay_type": "cell-based, rat", "settings": "NRP-152, 72 h; oleanolic acid statement at concentrations of 1 μM or less", "experimental": "Inhibitors of cell proliferation are known to be useful chemopreventive and chemotherapeutic agents. CDDO was tested against a wide variety of cells derived from highly aggressive leukemias and carcinomas, as well as from non-neoplastic tissues. NRP-152 cells were grown as described in Danielpour et al., 1994. MCF-7 cells were grown in phenol red-free RPMI 1640/10% charcoal-stripped FBS with added 17-β-estradiol (10 μM). Triterpenoids were added at the time of plating, and 72 h later ^3H-thymidine (1 μCi/well) was added for the final 2 h of incubation. Incorporation of thymidine was measured after cells were precipitated with TCA (10%), washed, and solubilized. The symbols used in FIG. 13 are CDDO, ▪; TP-82, ◯; and oleanolic acid; ●."}, "[6]": {"tested_on": "PC12 pheochromocytoma cells", "assay": "Neuronal differentiation / neurite outgrowth, image analysis", "assay_type": "cell-based, rat", "experimental": "CDDO induces monocytic differentiation in the poorly differentiated LCDB acute myelogenous leukemia cell line, derived from a chemotherapy-resistant patient at the NCI Pediatric Oncology Branch. FIG. 11 illustrates LCDB cells seeded in RPMI 1640/2% FBS, either alone (11A), with 2.5 ng/ml TGF-β1 (11B), with 10^−8 M CDDO (11C), or with both TGF-β1 and CDDO (11D). After 48 h, cytospin slide preparations were made and stained for α-naphthyl acetate esterase activity (kit from Sigma). PC12 cells were cultured for 5 days in gridded dishes in DMEM/10% FBS and 5% horse serum (Smith et al., 1997), either alone (11E), with 100 ng/ml 7S NGF (11F), with 10^−6 M CDDO (11G), or with both NGF and CDDO (11H). […] Methods for quantitative image analysis of size of cells and neurites have been described (De 1a Torre et al., 1997). Control cells in FIG. 11E are approximately 10 μm in diameter. 3T3-L1 cells were grown to confluency in DMEM/5% calf serum, and then treated once with CDDO in DMEM/10% FBS (FIG. 12A) or with CDDO and/or LG100268 in DMEM/10% FBS (FIG. 12B). Every two days thereafter, medium was changed to DMEM/10% FBS, without added CDD0 or LG100268. Cells were harvested on day 8 (FIG. 12A) or day 6 (FIG. 12B), and GPDH was measured in lysates, using a standard assay for consumption of NADH at 340 nm (Wise and Green, 1979).\nThe rat pheochromocytoma cell line, PC12, has been widely used to study neuronal development and differentiation. Treatment of these tumor cells with NGF is known to induce a neuronal phenotype, with extensive neurite outgrowth (Greene and Rischler, 1976; Guroff 1985). CDDO markedly potentiates these effects of NGF. FIGS. 11E and F show the induction of neurite outgrowth by NGF (100 ng/ml). […] When used in combination with NGF, CDDO (FIG. 11H) almost doubled the number of primary neurites/cell (from 1.2±0.2 S.E.M. to 2.1±0.1, p<0.001), and caused a greater than 3-fold increase in length of neurites (from 28±6 to 99±9 microns, p<0.001), and a 5-fold increase in neurite branching/cell (from 0.23±0.06 to 1.13±0.08, p<0.001). Thus, CDDO enhances neuronal differentiation of PC12 cells by increasing cell size, as well as the extent and complexity of neurite arborization."}, "iNOS enzymatic activity": {"target": "T1, iNOS enzymatic activity (Mus musculus, UniProt P29477)", "T1 construct": "added to RAW cells in which synthesis of these two enzymes has already been induced; endogenous in cells; host or cells: RAW 264.7 mouse macrophage-like cells, enzyme synthesis pre-induced", "T1 sequence (P29477 whole entry)": "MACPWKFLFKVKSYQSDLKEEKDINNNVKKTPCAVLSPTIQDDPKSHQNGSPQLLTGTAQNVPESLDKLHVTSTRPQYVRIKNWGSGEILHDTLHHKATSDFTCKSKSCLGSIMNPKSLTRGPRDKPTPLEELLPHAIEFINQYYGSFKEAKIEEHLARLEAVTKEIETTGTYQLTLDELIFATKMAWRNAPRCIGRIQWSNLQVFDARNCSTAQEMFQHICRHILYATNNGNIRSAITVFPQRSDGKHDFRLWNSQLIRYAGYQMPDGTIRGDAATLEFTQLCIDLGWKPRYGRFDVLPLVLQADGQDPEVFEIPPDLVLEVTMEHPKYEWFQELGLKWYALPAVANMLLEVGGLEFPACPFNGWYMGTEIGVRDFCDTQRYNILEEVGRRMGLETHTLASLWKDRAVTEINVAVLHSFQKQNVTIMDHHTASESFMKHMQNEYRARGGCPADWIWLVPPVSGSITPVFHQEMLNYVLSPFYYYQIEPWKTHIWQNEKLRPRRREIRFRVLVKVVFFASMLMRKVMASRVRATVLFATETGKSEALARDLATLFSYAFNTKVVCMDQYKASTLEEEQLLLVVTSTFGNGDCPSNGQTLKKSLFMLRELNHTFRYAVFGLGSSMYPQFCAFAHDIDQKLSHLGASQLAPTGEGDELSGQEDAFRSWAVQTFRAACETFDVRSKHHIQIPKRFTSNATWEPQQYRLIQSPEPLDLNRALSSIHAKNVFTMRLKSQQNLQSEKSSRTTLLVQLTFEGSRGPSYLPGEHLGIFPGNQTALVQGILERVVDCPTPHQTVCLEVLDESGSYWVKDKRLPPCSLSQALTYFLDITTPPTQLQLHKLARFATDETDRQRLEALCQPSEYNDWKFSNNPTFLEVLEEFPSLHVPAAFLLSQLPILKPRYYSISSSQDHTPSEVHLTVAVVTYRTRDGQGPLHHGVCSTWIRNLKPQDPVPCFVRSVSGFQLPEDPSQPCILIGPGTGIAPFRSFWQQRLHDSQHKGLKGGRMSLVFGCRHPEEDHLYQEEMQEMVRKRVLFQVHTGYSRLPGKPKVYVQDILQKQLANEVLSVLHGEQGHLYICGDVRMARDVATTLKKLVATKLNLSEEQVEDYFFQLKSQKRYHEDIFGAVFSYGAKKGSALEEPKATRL", "assay": "NO production in RAW cells with enzyme synthesis already induced", "assay_type": "cell-based", "settings": "added after enzyme synthesis induced; data not shown", "description": "(§3) These effects of CDDO have been seen in primary mouse macrophages, a mouse macrophage-like tumor cell line (RAW 264.7), and in non-neoplastic human colon fibroblasts. […] Neither iNOS nor COX-2 expression can be detected in these cells until they are stimulated by an inflammatory mediator such as IFN-γ, or LPS. […] The above effects on INOS and COX-2 are also reflected in the cumulative production of their respective enzyme products, NO and PGE2, as measured in primary macrophages (FIG. 14C). […] Likewise, the actions of CDDO are not blocked by the glucocorticoid antagonist, RU-486, which is known to bind to the glucocorticoid receptor (data not shown). In these regards, CDDO is identical to the other oleanolic acid derivatives previously studied (Suh et al., 1998)."}, "COX-2 enzymatic activity": {"target": "T2, COX-2 enzymatic activity (Mus musculus, UniProt Q05769)", "T2 construct": "added to RAW cells in which synthesis of these two enzymes has already been induced; endogenous in cells; host or cells: RAW 264.7 mouse macrophage-like cells, enzyme synthesis pre-induced", "T2 sequence (Q05769 18-604)": "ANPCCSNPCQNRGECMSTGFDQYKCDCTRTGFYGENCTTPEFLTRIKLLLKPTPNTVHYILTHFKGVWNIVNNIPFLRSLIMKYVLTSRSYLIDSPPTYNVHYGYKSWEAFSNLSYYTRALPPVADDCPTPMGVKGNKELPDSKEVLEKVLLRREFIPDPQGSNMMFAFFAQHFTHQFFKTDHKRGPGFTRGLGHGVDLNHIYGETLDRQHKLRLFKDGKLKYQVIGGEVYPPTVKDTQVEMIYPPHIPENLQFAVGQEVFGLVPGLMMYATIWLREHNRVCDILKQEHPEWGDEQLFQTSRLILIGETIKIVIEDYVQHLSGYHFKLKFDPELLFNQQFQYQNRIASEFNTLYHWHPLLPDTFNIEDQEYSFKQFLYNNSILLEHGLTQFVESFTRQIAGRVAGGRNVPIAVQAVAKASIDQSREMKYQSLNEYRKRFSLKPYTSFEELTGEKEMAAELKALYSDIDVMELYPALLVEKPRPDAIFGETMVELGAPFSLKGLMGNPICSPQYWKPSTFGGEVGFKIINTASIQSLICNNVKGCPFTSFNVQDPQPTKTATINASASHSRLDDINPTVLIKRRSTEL", "assay": "Prostaglandin production in RAW cells with enzyme synthesis already induced", "assay_type": "cell-based", "settings": "added after enzyme synthesis induced; data not shown", "description": "as §3"}, "[7]": {"tested_on": "NO production in primary mouse macrophages", "assay": "NO production induced by LPS and IFN-γ in primary mouse macrophages (FIG. 7)", "assay_type": "cell-based"}, "[8]": {"settings": "CDDO 10^−6 M in combination with NGF 100 ng/ml, 5 days"}}, "note": "pIC50: −log10 of the molar value.", "data": [{"smiles": "CC1(C)CC[C@]2(C(=O)O)CC[C@]3(C)[C@H](C(=O)C=C4[C@@]5(C)C=C(C#N)C(=O)C(C)(C)[C@@H]5CC[C@]43C)[C@@H]2C1", "note": "[Compound 6, 2-cyano-3,12-dioxoolean-1,9-dien-28-oic acid]", "values": [{"measurement": "pIC50", "setting": "[1]", "result": 7.00}, {"measurement": "pIC50", "setting": "[2]", "result": 6.52}, {"measurement": "pIC50", "setting": "[3]", "result": 6.70}, {"measurement": "pIC50", "setting": "[4]", "result": 6.52}, {"measurement": "suppressing thymidine incorporation", "setting": "[5]", "result": "highly active in the nanomolar range"}, {"measurement": "cell morphology", "setting": "[6]; CDDO 10^−6 M by itself, 5 days", "result": "larger, flatter morphology"}, {"measurement": "neurite formation", "setting": "[6]; CDDO 10^−6 M by itself, 5 days", "result": "does not induce neurite formation"}, {"measurement": "length of neurites", "setting": "[6]; [8]", "result": "99±9", "unit": "microns"}, {"measurement": "neurite branching/cell", "setting": "[6]; [8]", "result": "1.13±0.08"}, {"measurement": "number of primary neurites/cell", "setting": "[6]; CDDO 10^−6 M in combination with NGF 100 ng/ml, 5 days, ± S.E.M.", "result": "2.1±0.1"}, {"measurement": "increase in length of neurites over NGF alone", "setting": "[6]; CDDO in combination with NGF", "result": "greater than 3 fold"}, {"measurement": "increase in neurite branching/cell over NGF alone", "setting": "[6]; CDDO in combination with NGF", "result": 5, "unit": "fold"}, {"measurement": "immediate effect on NO production (direct inhibition of iNOS)", "setting": "iNOS enzymatic activity", "result": "no immediate effect"}, {"measurement": "immediate effect on prostaglandin production (direct inhibition of COX-2)", "setting": "COX-2 enzymatic activity", "result": "no immediate effect"}, {"measurement": "activity on LPS and IFN-γ induced NO production compared with dexamethasone (FIG. 7)", "setting": "[7]", "result": "favorable to that of dexamethasone"}]}]}
